Results from patent US12077503B2, “Substituted cyclic amides and their use as herbicides” (FMC CORPORATION, priority 2015, dated 2024).

Key:
Assay in all cases: Test C preemergence
Assay type in all cases: in vivo
[1] = system: waterhemp (common waterhemp, Amaranthus rudis); conditions: for Plant response rating, Waterhemp: scale 0 to 100, 0 no effect, 100 complete control
Procedure, shortened: (§1)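 Seeds in loam-sand soil treated preemergence, or plants in peat-based medium sprayed postemergence at 2–18 cm (1- to 4-leaf stage), with compound in a non-phytotoxic solvent mixture containing surfactant. Greenhouse-held 13–15 d, then visually rated against controls on a 0–100 scale (0 = no effect, 100 = complete control); dash = not tested.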

[2] = system: wheat (winter wheat, Triticum aestivum); conditions: for Plant response rating, Wheat: scale 0 to 100, 0 no effect, 100 complete control
Procedure, shortened: as §1

[3] = system: foxtail, giant (giant foxtail, Setaria faberii); conditions: for Plant response rating, Foxtail, Giant: scale 0 to 100, 0 no effect, 100 complete control
Procedure, shortened: as §1

[4] = system: ragweed (common ragweed, Ambrosia elatior); conditions: for Plant response rating, Ragweed: scale 0 to 100, 0 no effect, 100 complete control
Procedure, shortened: as §1

[5] = system: oilseed rape (Brassica napus); conditions: for Plant response rating, Oilseed Rape: scale 0 to 100, 0 no effect, 100 complete control
Procedure, shortened: as §1

[6] = system: blackgrass (Alopecurus myosuroides); conditions: for Plant response rating, Blackgrass: scale 0 to 100, 0 no effect, 100 complete control
Procedure, shortened: as §1

[7] = system: morningglory (Ipomoea coccinea); conditions: for Plant response rating, Morningglory: scale 0 to 100, 0 no effect, 100 complete control
Procedure, shortened: as §1

[8] = system: ryegrass, Italian (Italian ryegrass, Lolium multiflorum); conditions: for Plant response rating, Ryegrass, Italian: scale 0 to 100, 0 no effect, 100 complete control
Procedure, shortened: as §1

[9] = system: soybean (Glycine max); conditions: for Plant response rating, Soybean: scale 0 to 100, 0 no effect, 100 complete control
Procedure, shortened: as §1

[10] = system: lambsquarters (Chenopodium album); conditions: for Plant response rating, Lambsquarters: scale 0 to 100, 0 no effect, 100 complete control
Procedure, shortened: as §1

[11] = system: Galium (catchweed bedstraw, Galium aparine); conditions: for Plant response rating, Galium: scale 0 to 100, 0 no effect, 100 complete control
Procedure, shortened: as §1

[12] = system: johnsongrass (Sorghum halepense); conditions: for Plant response rating, Johnsongrass: scale 0 to 100, 0 no effect, 100 complete control
Procedure, shortened: as §1

[13] = system: nutsedge, yellow (yellow nutsedge, Cyperus esculentus); conditions: for Plant response rating, Nutsedge, Yellow: scale 0 to 100, 0 no effect, 100 complete control
Procedure, shortened: as §1

[14] = system: velvetleaf (Abutilon theophrasti); conditions: for Plant response rating, Velvetleaf: scale 0 to 100, 0 no effect, 100 complete control
Procedure, shortened: as §1

[15] = system: crabgrass, large (large crabgrass, Digitaria sanguinalis); conditions: for Plant response rating, Crabgrass, Large: scale 0 to 100, 0 no effect, 100 complete control
Procedure, shortened: as §1

[16] = system: barnyardgrass (Echinochloa crus-galli); conditions: for Plant response rating, Barnyardgrass: scale 0 to 100, 0 no effect, 100 complete control
Procedure, shortened: as §1

[17] = system: pigweed (Amaranthus retroflexus); conditions: for Plant response rating, Pigweed: scale 0 to 100, 0 no effect, 100 complete control
Procedure, shortened: as §1

[18] = system: corn (Zea mays); conditions: for Plant response rating, Corn: scale 0 to 100, 0 no effect, 100 complete control
Procedure, shortened: as §1

[19] = 31 g ai/ha, 0 is no effect, 100 is complete control

CN1CC(c2ccc(F)c(F)c2)C(C(=O)Nc2ccccc2S(C)(=O)=O)C1=O (stereo not drawn) [Compound 640]
Plant response rating (scale of 0 to 100), Waterhemp [1, 19]: 55
Plant response rating, Waterhemp ([1]; 62 g ai/ha): 75
Plant response rating, Waterhemp ([1]; 125 g ai/ha): 70
Plant response rating, Waterhemp ([1]; 250 g ai/ha): 85
Plant response rating (scale of 0 to 100), Wheat [2, 19]: 0
Plant response rating, Wheat ([2]; 62 g ai/ha): 20
Plant response rating, Wheat ([2]; 125 g ai/ha): 45
Plant response rating, Wheat ([2]; 250 g ai/ha): 60
Plant response rating (scale of 0 to 100), Foxtail, Giant [3, 19]: 85
Plant response rating, Foxtail, Giant ([3]; 62 g ai/ha): 95
Plant response rating, Foxtail, Giant ([3]; 125 g ai/ha): 95
Plant response rating, Foxtail, Giant ([3]; 250 g ai/ha): 95
Plant response rating (scale of 0 to 100), Ragweed [4, 19]: 0
Plant response rating, Ragweed ([4]; 62 g ai/ha): 40
Plant response rating, Ragweed ([4]; 125 g ai/ha): 70
Plant response rating, Ragweed ([4]; 250 g ai/ha): 85
Plant response rating (scale of 0 to 100), Oilseed Rape [5, 19]: 0
Plant response rating, Oilseed Rape ([5]; 62 g ai/ha): 0
Plant response rating, Oilseed Rape ([5]; 125 g ai/ha): 5
Plant response rating, Oilseed Rape ([5]; 250 g ai/ha): 80
Plant response rating (scale of 0 to 100), Blackgrass [6, 19]: 0
Plant response rating, Blackgrass ([6]; 62 g ai/ha): 0
Plant response rating, Blackgrass ([6]; 125 g ai/ha): 20
Plant response rating, Blackgrass ([6]; 250 g ai/ha): 50
Plant response rating (scale of 0 to 100), Morningglory [7, 19]: 0
Plant response rating, Morningglory ([7]; 62 g ai/ha): 0
Plant response rating, Morningglory ([7]; 125 g ai/ha): 0
Plant response rating, Morningglory ([7]; 250 g ai/ha): 0
Plant response rating (scale of 0 to 100), Ryegrass, Italian [8, 19]: 0
Plant response rating, Ryegrass, Italian ([8]; 62 g ai/ha): 5
Plant response rating, Ryegrass, Italian ([8]; 125 g ai/ha): 5
Plant response rating, Ryegrass, Italian ([8]; 250 g ai/ha): 40
Plant response rating (scale of 0 to 100), Soybean [9, 19]: 0
Plant response rating, Soybean ([9]; 62 g ai/ha): 0
Plant response rating, Soybean ([9]; 125 g ai/ha): 0
Plant response rating, Soybean ([9]; 250 g ai/ha): 0
Plant response rating (scale of 0 to 100), Lambsquarters [10, 19]: 25
Plant response rating, Lambsquarters ([10]; 62 g ai/ha): 35
Plant response rating, Lambsquarters ([10]; 125 g ai/ha): 50
Plant response rating, Lambsquarters ([10]; 250 g ai/ha): 70
Plant response rating (scale of 0 to 100), Galium [11, 19]: 98
Plant response rating, Galium ([11]; 62 g ai/ha): 80
Plant response rating, Galium ([11]; 125 g ai/ha): 85
Plant response rating, Galium ([11]; 250 g ai/ha): 90
Plant response rating (scale of 0 to 100), Johnsongrass [12, 19]: 0
Plant response rating, Johnsongrass ([12]; 62 g ai/ha): 0
Plant response rating, Johnsongrass ([12]; 125 g ai/ha): 0
Plant response rating, Johnsongrass ([12]; 250 g ai/ha): 40
Plant response rating (scale of 0 to 100), Nutsedge, Yellow [13, 19]: 0
Plant response rating, Nutsedge, Yellow ([13]; 62 g ai/ha): 0
Plant response rating, Nutsedge, Yellow ([13]; 125 g ai/ha): 0
Plant response rating, Nutsedge, Yellow ([13]; 250 g ai/ha): 0
Plant response rating (scale of 0 to 100), Velvetleaf [14, 19]: 0
Plant response rating, Velvetleaf ([14]; 62 g ai/ha): 0
Plant response rating, Velvetleaf ([14]; 125 g ai/ha): 10
Plant response rating, Velvetleaf ([14]; 250 g ai/ha): 40
Plant response rating (scale of 0 to 100), Crabgrass, Large [15, 19]: 95
Plant response rating, Crabgrass, Large ([15]; 62 g ai/ha): 100
Plant response rating, Crabgrass, Large ([15]; 125 g ai/ha): 98
Plant response rating, Crabgrass, Large ([15]; 250 g ai/ha): 100
Plant response rating (scale of 0 to 100), Barnyardgrass [16, 19]: 80
Plant response rating, Barnyardgrass ([16]; 62 g ai/ha): 90
Plant response rating, Barnyardgrass ([16]; 125 g ai/ha): 90
Plant response rating, Barnyardgrass ([16]; 250 g ai/ha): 95
Plant response rating (scale of 0 to 100), Pigweed [17, 19]: 40
Plant response rating, Pigweed ([17]; 62 g ai/ha): 50
Plant response rating, Pigweed ([17]; 125 g ai/ha): 70
Plant response rating, Pigweed ([17]; 250 g ai/ha): 80
Plant response rating (scale of 0 to 100), Corn [18, 19]: 0
Plant response rating, Corn ([18]; 62 g ai/ha): 0
Plant response rating, Corn ([18]; 125 g ai/ha): 0
Plant response rating, Corn ([18]; 250 g ai/ha): 0
